Source: BindingDB's records for doi:10.1016/j.ejmech.2019.05.051 (Zhejiang Academy of Medical Sciences, 2019)

assay: Inhibition of rat brain cortex AChE using acetylthiocholine iodide as substrate incubated for 15 mins by spectrophotometry

Structure (SMILES)	IC50
CC(c1cc(OC(=O)N2CCCC2)c2ncccc2c1)N(C)C (stereo not given)	28.6 µM
CCN(C)C(=O)Oc1cc(C(C)N2CCCCC2)cc2cccnc12 (stereo not given)	29 µM
CC(c1cc(OC(=O)N2CCOCC2)c2ncccc2c1)N(C)C (stereo not given)	8.8 µM
CCN(C)C(=O)Oc1cc(C(C)N(CC)CC)cc2cccnc12 (stereo not given)	41.2 µM
CC(c1cc(OC(=O)N(C)C)c2ncccc2c1)N1CCOCC1 (stereo not given)	69.9 µM
CCN(C)C(=O)Oc1cccc([C@H](C)N(C)C)c1 [2,3-dihydroxybutanedioic acid; 3-[(1S)-1-(dimethylamino)ethyl]phenyl N-ethyl-N-methylcarbamate]	9 µM
CCN(C)C(=O)Oc1cc(C(C)N(C)CC)cc2cccnc12 (stereo not given)	40.7 µM
CCN(CC)C(=O)Oc1cc(C(C)N(C)C)cc2cccnc12 (stereo not given)	13.6 µM
CC(c1cc(OC(=O)N2CCCC2)c2ncccc2c1)N1CCOCC1 (stereo not given)	48.6 µM
CCN(C)C(=O)Oc1cc(C(C)N2CCCC2)cc2cccnc12 (stereo not given)	18.1 µM
CCN(C)C(=O)Oc1cc(C(C)N(C)C)cc2cccnc12 (stereo not given)	1.2 µM
CCN(C)C(=O)Oc1cc(C(C)N2CCN(C)CC2)cc2cccnc12 (stereo not given)	54.7 µM
CC(c1cc(OC(=O)N2CCCCC2)c2ncccc2c1)N(C)C (stereo not given)	20.6 µM
CC(c1cc(OC(=O)N2CCOCC2)c2ncccc2c1)N1CCOCC1 (stereo not given)	8.3 µM
CC(c1cc(OC(=O)N(C)C)c2ncccc2c1)N(C)C (stereo not given)	16.3 µM
